Experimental data as given in article PMC9057582, “HIF inhibitor 32-134D eradicates murine hepatocellular carcinoma in combination with anti-PD1 therapy” (The Journal of Clinical Investigation, 2022).

Columns and labels:
[1] = system: HIF-1, HIF-2 and p300 recruitment to HREs; assay: ChIP-qPCR of HRE occupancy in Hep3B cells; assay type: cell-based, human; conditions: 16 hours, 5 µM 32-134D or 10 µM PT2385
Procedure: Coadministration of the proteasome inhibitor MG-132 blocked the effect of 32-134D on HIF-1α protein levels (Figure 1H). […] Taken together, the results presented in Figure 1 and Supplemental Figures 1–3 indicate that 32-134D induces HIF-α subunit degradation, thereby inhibiting activation of HIF-1 and HIF-2 target gene transcription.
Cells were seeded overnight and then exposed to 20% or 1% O2 in the presence of compound or vehicle for 16 hours. Protein was cross-linked to DNA by addition of 37% formaldehyde to culture medium for 10 minutes at 37°C and quenched by addition of 0.1 M glycine. Cells were washed with and collected in 5 mL of cold PBS containing PIs. Cells were pelleted and resuspended in 200 μL of SDS lysis buffer (50 mM Tris-HCl [pH 8.1], 10 mM EDTA, 1% SDS) containing PIs and incubated on ice for 10 minutes. Lysates were sonicated to produce DNA fragments ranging from 200 to 900 bp and centrifuged for 10 minutes at 4°C. Supernatants were collected and diluted 10-fold with dilution buffer (16.7 mM Tris-HCl [pH 8.1], 167 mM NaCl, 1.2 mM EDTA, 0.01% SDS, 1.1% Triton X-100) with PIs, precleared with 20 μL of salmon sperm DNA/protein A agarose slurry, and a 20-μL aliquot was reserved as input control. Antibody (2 μg; see Supplemental Table 6) was added and samples were rotated overnight at 4°C. Immune complexes were precipitated with 50 μL of salmon sperm DNA/protein A agarose slurry. Pelleted beads were washed serially using low-salt wash buffer (20 mM Tris-HCl [pH 8.1], 150 mM NaCl, 2 mM EDTA, 0.1% SDS, 1% Triton X-100); high-salt wash buffer (20 mM Tris-HCl [pH 8.1], 500 mM NaCl, 2 mM EDTA, 0.1% SDS, 1% Triton X-100); LiCl wash buffer (10 mM Tris-HCl [pH 8.1], 0.25 M LiCl, 1% Nonidet P-40, 1% deoxycholate, 1 mM EDTA); and TE buffer (10 mM Tris-HCl [pH 8.1], 1 mM EDTA). Elution buffer (1% SDS, 0.1 M NaHCO3) was added and eluates were heated at 65°C overnight to reverse cross-linking. Eluates were treated with proteinase K for 1 hour at 45°C and DNA was purified by extraction in phenol/chloroform/isoamyl alcohol (25:24:1, v/v/v) and isopropanol precipitation. […]

[2] = system: HIF-1α and HIF-2α protein; assay: Immunoblot of nuclear extracts of Hep3B cells; assay type: cell-based, human; conditions: 5 μM, 24 hours
Procedure: Figure 1 Identification of HIF inhibitors. (A) Hep3B-c1 cells were stably transfected with firefly luciferase (FLuc) reporter p2.1, which contains a hypoxia-response element (HRE), and Renilla luciferase (RLuc) reporter pSVR. (B) Hep3B-c1 cells were incubated with vehicle (Veh; 0.1% DMSO; blue bars) or 10 μM 32-134D (red bars) at 20% O2 (n = 6) or 1% O2 (n = 12) for 24 hours. Cell lysates were assayed for Fluc/Rluc activity (mean ± SEM); *P < 0.05 versus vehicle (χ^2 test). (C) Chemical structures and IC50 values for HIF inhibitors. (D and E) Hep3B cells were exposed to 20% O2 with vehicle, or 1% O2 with vehicle (blue bar), 32-134D (red bars), 33-063 (green bars), or PT2385 (brown bars) for 24 hours and CA9 (D) and EPO (E) mRNAs were quantified by RT-qPCR. […] (F) Hep3B cells were exposed to 20% or 1% O2 in the presence of vehicle or 1% O2 in the presence of 5 μM 32-134D (n = 3 each) for 24 hours. RNA sequencing identified genes with hypoxia-induced expression (blue circle) and genes that were inhibited by 32-134D (orange circle), based on FDR < 0.05 and fold change > 1.5. (G) Hep3B cells were exposed to 20% or 1% O2 for 24 hours in the presence of vehicle or 5 μM 32-134D, nuclear extracts were prepared, and immunoblot assays were performed. […]

SMILES: Brc1ccc2c(-c3csc(-c4c[nH]c5c(Br)cccc45)n3)c[nH]c2c1 [Compound 32-134D]
- hypoxia-induced recruitment of HIFs and p300 to EPO and ANGPTL4 HREs [1]: impaired
- hypoxia-induced recruitment of HIFs and p300 to the CA9 HRE [1]: impaired
- HIF-1α protein expression [2]: inhibited
